Results taken from patent US11213495B2, “Method and composition for decreasing the psychotomimetic side effect and addictive disorder of ketamine” (NATIONAL HEALTH RESEARCH INSTITUTES, priority 2016, dated 2022).

Key:
Type in all cases: in vivo
[1] = system: Male ICR mice; experiment: Forced swim test (FST): duration of immobility, struggling and swimming
Experimental: (§1) FST was conducted for two consecutive days. Mice were placed in a Plexiglas cylinder (33.5 cm height, 20 cm diameter) filled with 25±2° C. water to a height of 18-20 cm. For the first exposure, mice were placed in the water for 15 min (pre-test session) followed by […]. Twenty-four hours later (day 1 test session), various doses of test drug (at 0, 30 and 100 mg/kg) was administered 30 min prior to the ketamine (10 mg/kg) or saline. Then, the mice were tested 30 min after ketamine injection which placed in the water again for a 6 min session (test session), the first 2 minutes has elapsed. Immobility was assigned when no additional activity was observed other than that required to keep the head above the water.
This experiment included a control group and various doses of ketamine (3, 10, 15 mg/kg), betaine (10, 20, 30 mg/kg) and betaine (10, 20, 30 mg/kg) pretreatment prior to ketamine (fixed dose at 10 mg/kg). […] There was no significant effect of test session or interaction.

[2] = system: Male ICR mice; experiment: Prepulse inhibition test (PPI) of acoustic startle; settings: for PPI: ketamine 30 mg/kg alone
Experimental: The PPI was operated as described in our previous work (Chan et al., 2012a). Briefly, the animals were initially moved from the home cage, weighed, and then placed into the restrainers in the SR-LAB (San Diego Instruments, San Diego, Calif., USA) acoustic startle chambers for 30-min habituation. The test drug (0, 30 and 100 mg/kg) was administered 30 min prior to ketamine (30 mg/kg) or saline injection. After administration of ketamine or saline, the experiment started with a 5-min adaptation period during which the animals were exposed to 67-dB background white noise, and this background noise was continued throughout the session. Then, the following adaptation period startle session began with five initial startle stimuli (120 dB bursts of white noise, 40 ms duration). After the first five initial stimuli, mice received five different trial types: pulse alone trials (120 dB bursts of white noise, 40 ms duration), three prepulse and pulse trials in which 76, 81, or 86 dB white noise bursts (9, 14, and 19 dB above background) of 20 ms duration preceded 120 dB pulse by 100 ms prepulse onset to pulse onset, and no-stimuli trials during which only background noise was applied. Each of these trial types was presented five times in randomized order. The inter trial interval was 7-23 s, and the test lasted 15 min in total. Prepulse inhibition was calculated as the percent inhibition of the startle amplitude evoked by the pulse alone: % PPI=(magnitude on pulse alone trial−magnitude on prepulse+pulse trial/magnitude on pulse alone trial)×100.

[3] = system: Male ICR mice; experiment: Forced swimming test (FST) scored by time-sampling method; settings: day 1 and 8, post hoc vs control
Experimental: as §1
The acute and sustained effects of various doses of ketamine (3, 10, 15 mg/kg) and betaine (10, 20, 30 mg/kg) on FST were assessed on day 1 and 8, respectively (FIGS. 1A and 1B). […] There was no significant effect of test session or interaction.

[4] = system: Male ICR mice; experiment: Social interaction test
Experimental: This protocol was modified from the original social interaction test (Lin et al. 2010; Qiao et al. 2001). The social interaction between pairs of mice was examined in an open-field box (35×35×30 cm) under normal room lighting. The paired mice were randomly assigned from different home cages with the same drug treatment. […] Five minutes later, each pair of unfamiliar mice was placed in the apparatus for 10 min and the total time that a pair spent in social interaction and specific social interaction behaviors (sniffing the partner, following, mounting, and crawling under or over the partner) were recorded by an observer who was blind to the drug treatments.

[5] = system: Male ICR mice; experiment: Novelty suppressed feeding test (NSF); settings: 1 h prior to test, vs saline-treated mice
Experimental: NSF test consisted of food-depriving mice overnight (24 hours). The test drug (10, 20 and 30 mg/kg), ketamine (10 mg/kg) or saline was administered 1 h prior to the test. At the time of testing, a single food pellet placed in the middle of a novel environment (a test box 40×40×40 cm). The latency to start feeding was used as a measure for depressive-like or anxiety-like behavior.

[6] = system: Male ICR mice; experiment: Open field test / locomotor activity
Experimental: To evaluate the effect of DMG on ketamine-induced locomotor hyperactivity, the animals were moved from the home cage, weighed and placed into an activity cage (Columbus Auto-Track System, Version 3.0 A, Columbus Institute, Columbus, Ohio, USA) for 2 hours. Thereafter, the test drug (0, 30, and 100 mg/kg) was given 30 min prior to ketamine (30 mg/kg) or saline. The distance (cm) traveled was recorded for totally 180 min. A 70% alcohol solution was used to clean the inner surface of all the testing apparatus between trials to remove any potentially interfering odors left by the previous mouse.

[7] = betaine 30 mg/kg pretreatment prior to ketamine 10 mg/kg, day 1 test session
[8] = betaine 30 and 100 mg/kg alone, 60 min after administration
[9] = ketamine 15 mg/kg, day 7 retest session, vs control

## C[N+](C)(C)CC(=O)O [betaine]
[1]; [7]
  duration of immobility in FST compared with ketamine (10 mg/kg) alone: significantly shorter duration of immobility
  duration of swimming in FST compared with ketamine (10 mg/kg): longer duration of swimming
[1]; betaine 30 mg/kg pretreatment prior to ketamine 10 mg/kg, over both sessions
  duration of immobility in FST compared with ketamine (10 mg/kg) alone: significantly shorter duration of immobility
[1]; betaine 30 mg/kg, day 7 retest session, vs control
  duration of struggling in FST: significantly increased
[1]; betaine 10, 20 and 30 mg/kg pretreatment prior to ketamine 10 mg/kg, day 7 retest session, vs vehicle control
  duration of immobility in FST: significantly decreased
[1]; betaine 10, 20 and 30 mg/kg pretreatment prior to ketamine 10 mg/kg, main effect over both sessions
  duration of immobility in FST: significantly decreased
[1]; betaine 10, 20 and 30 mg/kg prior to ketamine 10 mg/kg, day 1 test session, vs vehicle control
  duration of immobility in FST: significantly reduced
[1]; betaine 10, 20 and 30 mg/kg prior to ketamine 10 mg/kg, day 7 retest session, vs control
  duration of swimming in FST: significantly increased
[1]; betaine 20 and 30 mg/kg, day 1 test session, vs control
  duration of swimming in FST: significantly increased
[1]; betaine 20 and 30 mg/kg, day 1 test session, vs vehicle control
  duration of immobility in FST: significantly reduced
[1]; betaine 20 and 30 mg/kg, day 7 retest session, vs vehicle control
  duration of immobility in FST: significantly decreased
[1]; betaine 20 and 30 mg/kg, main effect over both sessions
  duration of immobility in FST: significantly decreased
[1]; betaine 20 and 30 mg/kg, over both sessions
  duration of struggling in FST: significantly increased
[2]; betaine 100 mg/kg pretreatment, ketamine 30 mg/kg
  ketamine-induced disruption of PPI: significantly attenuated
[2]; betaine prior to saline
  reduction of PPI: did not
[3]; betaine 20 and 30 mg/kg
  count of immobility in FST: significantly decreased
[4]; betaine 30 and 100 mg/kg i.p. prior to ketamine 30 mg/kg
  reduction in social interaction duration induced by ketamine: significantly attenuated
[5]; betaine 30 mg/kg i.p.
  latency to feed in the NSF: significantly reduced
[6]; betaine 30 and 100 mg/kg 30 min prior to ketamine 30 mg/kg
  ketamine-induced locomotor hyperactivity: not affected
[6]; [8]
  time in center: did not affect
  travel distances (locomotor activity): did not affect

## CNC1(c2ccccc2Cl)CCCCC1=O (racemic) [ketamine]
[1]; ketamine 10 mg/kg, DMG experiment, tested 30 min after ketamine
  duration of immobility in FST: significantly decreased
[1]; ketamine 15 mg/kg, day 1 test session, vs control
  duration of struggling in FST: significantly increased
[1]; [9]
  duration of struggling in FST: significantly increased
  duration of swimming in FST: significantly increased
[1]; ketamine 15 mg/kg, day 7 retest session, vs vehicle control
  duration of immobility in FST: significantly decreased
[1]; ketamine 15 mg/kg, over both sessions
  duration of struggling in FST: significantly increased
[1]; ketamine 3, 10 and 15 mg/kg, day 1 test session, vs vehicle control
  duration of immobility in FST: significantly reduced
[1]; ketamine 10 and 15 mg/kg, day 1 test session, vs control
  duration of swimming in FST: significantly increased
[1]; ketamine 10 and 15 mg/kg, main effect over both sessions
  duration of immobility in FST: significantly decreased
[1]; ketamine 10 and 15 mg/kg, over both sessions
  duration of swimming in FST: significantly increased
[2]
  PPI: reduced
[2]; listed as Ketamine
  PPI: significantly reduced
[3]; ketamine 3, 10 and 15 mg/kg
  count of immobility in FST: significantly decreased
[4]; ketamine 30 mg/kg
  social interaction duration: reduction
[5]; ketamine 10 mg/kg
  latency to feed in the NSF: significantly reduced
[6]; ketamine 30 mg/kg, measured for 30 min
  total travel distances after ketamine administration: increased
